Measured values taken from patent US20210077492A1, “METHODS AND COMPOSITIONS OF TREATING PANCREATIC CANCER” (The Trustees of Indiana University, priority 2019, published 2021).

How the values were obtained:
[1] = test system: primary PDAC cell line ASPC1; experiment: Morphological analysis by giemsa staining for induction of differentiation; assay type: cell-based, human; settings: DT1 at 0.5-2 μM
Description: (§1) Referring now to FIG. 23, primary PDAC cells were incubated with 2 μM of DT1 and 1 uM of THU for 96 hrs. RNA was isolated and gene expression pancreas differentiation factors were analyzed in ASPC1 and BXPC3 cells. Referring now to FIG. 24, primary PDAC cell line ASPC1 was treated with 1 μM of THU, 2 μM of DT1, and 1 μM of DAC, or the combination of 0.5 μM of DT1 plus 0.2 μM of DAC, or 1 μM of THU and 0.5 μM of DT1 plus 0.2 μM of DAC. Morphological analysis was performed using a giemsa staining method to determine induction of differentiation (enlargement of cytoplasm and reduction of nuclear compartments). Black bar=200× magnification. Referring now to FIG. 25, primary PDAC cell line ASPC1 was treated with 100 nM of ATRA and 1 μM of DAC, or combination of 100 nM of ATRA plus 200 nM of DAC. Morphological analysis was performed using a giemsa staining method to determine induction of differentiation (enlargement of cytoplasm and reduction of nuclear compartments). Black bar=200× magnification. Referring now to FIG. 26, pancreatic cancer cell line ASPC1 was treated with DMSO as control, 1 μM of THU, and varying DT1 concentrations. DNA (100 ng) was isolated at 96 hours post transfection and was used to quantify global 5-methyla-cytosine (5-mC) methylation using LINE1 global DNA methylation kit (ACTIVE MOTIF). […]

[2] = test system: ASPC1 and BXPC3 cells; experiment: Gene expression of pancreas differentiation factors by qPCR; assay type: cell-based, human; settings: DT1 at 0.5-2 μM
Description: Gene expression analysis by real time quantitative polymerase chain reaction (qRT-PCR) was performed using standard methods. Gene expression of target genes was performed using either SYBR green methods or Power Green ROX dye master mix (Applied Biosystems, Foster city CA, USA Lot number 1610538). Assays were performed with an Applied Biosytems ViiA7 (Life Technologies).
as §1, with “Morphological analysis was performed using a giemsa staining method to determine induction of differentiation (enlargement of cytoplasm and reduction of nuclear compartments). Black bar=200× magnification. Referring now to FIG. 26, pancreatic cancer cell line ASPC1 was treated with DMSO as control, 1 μM of THU, and varying DT1 concentrations.” left out

[3] = test system: PDAC cell lines ASPC1, MiaPaCa-2, BXPC3; experiment: Cell proliferation of PDAC cell lines by automated IncuCyte incubator; assay type: cell-based, human
Description: A panel of pancreatic cancer cell lines (PCCs) was ordered from ATCC (https://www.atcc.org). Cells were cultured in RPMI media supplemented with 10% FBS and 1% penicillin streptomycin (100 units/ml of penicillin and […] of streptomycin) in a 37° C. incubator with 5% Carbon dioxide (CO2). All cell lines were confirmed to be mycoplasma-free using a Mycoalert detection kit (Lonza Allendale N.J., catalog #LT07-218) as per manufacturer's protocol. For DT1, DAC, and THU treatments, 1000 cells were plated in a 96 well plate overnight. Cells were treated three times at 24, 48, and 72 hours post-plating using concentrations of 0.2-2 μM of DT1 and DAC and 1-2 μM of THU independently or in combination. DMSO was used as a vehicle control. Cell proliferation was measured in a 37° C., Incucyte incubator (IncuCyte™ live-cell, Essen biosciences, Michigan USA) with 5% CO2 for automated live cell proliferation in real time, and images were taken every 6 hours for up to 160 hours. Cells were also counted on a Beckman coulter automated cell counter. Referring now to FIG. 27, primary PDAC cell line ASPC1 was incubated with 2 μM DT1 to inhibit UHRF1 and/or DNMT1 inhibitor DAC or CDA inhibitor THU (1 μM) or […], 0.2 μM DAC and THU (1 μM). Cell proliferation was quantified by automated IncuCyte incubator for 160 hours. […] Referring now to FIG. 28, primary PDAC cell line MiaPaCa-2 was incubated with 2 μM DT1 to inhibit UHRF1 and/or DNMT1 inhibitor DAC or CDA inhibitor THU (1 μM) or […], 0.2 μM DAC, and THU (1 μM). Cell proliferation was quantified by automated IncuCyte incubator for 160 hours. […] Referring now to FIG. 29, primary PDAC cell line BXPC3 was incubated with 2 μM DT1 to inhibit UHRF1 and/or DNMT1 inhibitor DAC or CDA inhibitor THU (1 μM) or […], 0.2 μM DAC, and THU (1 μM). Cell proliferation was quantified by automated IncuCyte incubator for 160 hours. […] Decitabine (DAC) is a clinically available drug that degrades DNMT1 to decrease DNA methylation while DT1 targets UHRF1.

[4] = test system: pancreatic cancer cell line ASPC1; experiment: LINE1 global 5-methyl-cytosine DNA methylation assay in treated or transfected cells; assay type: cell-based, human; settings: concentration not given
Description: DNA Methylation of normal pancreas and PDAC tumor samples was analyzed using data available through the MethHC database (http://methhc.mbc.nctu.edu.tw/php/index.php) using the PAAD dataset. Methylation analysis was performed at transcriptional start sites (TSS), promoters, and CpG island. For global DNA methylation changes, cells were transfected with shRNA against human UHRF1 (Dharmacon Horizon, catalog V3SH7590-225743149) for 96 hours or treated with THU (1 μM) DT1 (0.5-15 μM) or 5-aza-cytidine (1 μM). DNA was isolated using the Clonetech NucleoSpin DNA rapid lyse kit (catalog 740110.1) following manufacture's recommended conditions. 100 ng of isolated DNA was used to quantify DNA methylation using the 5mC-Long Interspersed Nucleotide Element 1 (LINE-1) kit from Active Motif (catalog number 55017) following the manufacture's recommendations. A Colorimetric ELISA readout was measured on a BioTek synhergy HI reader at 450 nm.
Referring now to FIG. 17, pancreatic cancer cell line ASPC1 was transfected with shRNA against UHRF1. DNA (100 ng) was isolated from shUFRF1 and scramble transfected cells at 96 hours post transfection and was used for quantification of global 5-methyl-cytosine methylation using LINE1 global DNA methylation kit (ACTIVE MOTIF).
Referring now to FIG. 23, primary PDAC cells were incubated with 2 μM of DT1 and 1 uM of THU for 96 hrs. […]

[5] = test system: orthotopic xenografts of PDAC with AsPC-1 cells; experiment: Orthotopic PDAC xenograft model, tumor growth kinetics; assay type: in vivo; settings: THU 10 mg/kg three times weekly, 35 days
Description: Orthotopic mouse models with human PDAC cells were generated using NOD/SCID mice. In vivo BLI was conducted on a NiteOwl system and acquisition software. Data were analyzed using eLumenate analysis software. For the primary tumor, signal intensity was quantified as the sum of all detected photon counts within a region of interest selected by an automated maximum entropy method and normalized to the area of that region of interest. For the metastatic region, a region of interest was drawn manually in a “crescent” shape which encompassed all of the abdominal region except the primary tumor and maintained a boundary at least 2 mm away from the ROI for the primary. The signal in the metastatic region was again quantified by dividing the sum of all detected photon counts in the region by the area of the region.
Referring to FIG. 30, bioluminescent and primary PDAC cell lines ASPC1 and MiPaCa-2 were used to generate PDAC xenografts for therapeutic validation. At 22 days post injection of tumor cells, tumor growth and metastatic dissemination are detected in this orthotopic models in NOD/SCID mice. Referring to FIG. 31, orthotopic xenografts of PDAC with AsPC-1 cells were treated with vehicle control, Tetrahydrouridine (THU, 10 mg/kg), Decitabine (DAC, 0.2 mg/kg), or combination of THU (10 mg/kg) with DAC (0.1 mg/kg) three times weekly. […]

| SMILES | differentiation-based morphological changes [1] | expression of pancreas differentiation factors [2] | concentration range at which DT1 activity was observed [3] | PDAC proliferation ([3]; DT1 at 0.5-2 μM) | global DNA methylation [4] | tumor growth kinetics [5] | PDAC proliferation ([3]; alone or in combination, methods: 0.2-2 μM of DT1 and DAC, 1-2 μM of THU) |
| --- | --- | --- | --- | --- | --- | --- | --- |
| C/C(=N\O)c1c[nH]c(=O)[nH]c1=O [DT1] | induced differentiation-based morphological changes | upregulated pancreas differentiation factors | micromolar range | decreased PDAC proliferation | decreased global DNA methylation | – | – |
| O=C1NC(O)CCN1[C@@H]1O[C@H](CO)[C@@H](O)[C@H]1O (stereo partly shown) [THU, tetrahydrouridine, reference compound] | – | – | – | – | – | did not affect tumor growth kinetics | did not inhibit PDAC proliferation alone |
